Laboratory results published in ChEMBL document CHEMBL3286280, “Importance of sphingosine kinase (SphK) as a target in developing cancer therapeutics and recent developments in the synthesis of novel SphK inhibitors” (J Med Chem, 2014).

What was measured:
Homo sapiens = species on record: Homo sapiens; assay: Selectivity ratio for SphK1 (unknown origin) over SphK2 (unknown origin)
Sphingosine kinase 2 [1] = molecular target: T1, Sphingosine kinase 2 (Homo sapiens, UniProt Q9NRA0); assay: Inhibition of SphK2 (unknown origin)
T1 sequence (Q9NRA0 whole entry): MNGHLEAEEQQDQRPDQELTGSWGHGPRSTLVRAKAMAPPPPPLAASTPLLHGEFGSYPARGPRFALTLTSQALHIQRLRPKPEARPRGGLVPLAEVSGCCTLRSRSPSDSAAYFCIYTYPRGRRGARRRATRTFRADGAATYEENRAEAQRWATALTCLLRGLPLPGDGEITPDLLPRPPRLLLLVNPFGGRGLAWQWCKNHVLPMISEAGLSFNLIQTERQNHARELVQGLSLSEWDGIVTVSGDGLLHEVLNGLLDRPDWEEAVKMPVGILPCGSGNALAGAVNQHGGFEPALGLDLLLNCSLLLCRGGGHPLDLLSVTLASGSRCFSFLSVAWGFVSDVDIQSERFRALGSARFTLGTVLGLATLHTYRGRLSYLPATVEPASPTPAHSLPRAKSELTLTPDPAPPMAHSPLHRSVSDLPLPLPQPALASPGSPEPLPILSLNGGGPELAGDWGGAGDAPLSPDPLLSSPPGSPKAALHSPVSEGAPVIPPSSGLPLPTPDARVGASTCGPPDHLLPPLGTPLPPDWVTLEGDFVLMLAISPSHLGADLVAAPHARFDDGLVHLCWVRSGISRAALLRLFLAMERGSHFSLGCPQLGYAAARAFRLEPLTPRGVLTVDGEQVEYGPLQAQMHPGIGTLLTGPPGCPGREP

Sphingosine kinase 2 [2] = molecular target: T1, Sphingosine kinase 2; assay: Inhibition of SphK2 (unknown origin) using sphingosine and [gamma-32P]ATP as substrate
Sphingosine kinase 2 [3] = molecular target: T1, Sphingosine kinase 2; assay: Competitive inhibition of V5-His-tagged human SphK2 expressed in HEK293 cells assessed as S1P production using sphingosine and [gamma-32P]ATP as substrate by thin layer chromatography; format: cell-based

| Structure (SMILES) | Selectivity ratio (Homo sapiens) | Ki (Sphingosine kinase 2 [1]) | other results |
| --- | --- | --- | --- |
| CCCCCCCCc1ccc(CCN2CCCC(O)C2)cc1 (stereo unspecified) | 6.1 | – | – |
| CCCCCCCCc1ccc(CC[C@@](N)(CO)COC)cc1 | – | 27 µM | – |
| CCCCOc1ccc(CC/C=C2\SC(=O)N(CCN)C2=O)cc1 | – | – | Ki (Sphingosine kinase 2 [2]): 4.3 µM |
| CCCCCCCCCCCCC/C=C/[C@@H](O)[C@H](CO)N(C)C [DIMETHYLSPINGOSINE] | – | 12 µM | – |
| CCCCCCCCc1ccc(CCN2CCC(O)CC2)cc1 | 15 | – | – |
| CCCCCc1ccc(/C=C/[C@H](O)[C@@H](CO)NC)cc1 | – | – | IC50 (Sphingosine kinase 2 [3]): 10 µM |
